Holding throughout (format): biochemical
For experiment [1], the target named is JNK2 (Homo sapiens, UniProt P45984). In words: IC50 assay for JNK kinase inhibition, JNK2.
For experiment [2], the target named is JNK1 (Homo sapiens, UniProt P45983). Kind of experiment: IC50 assay for JNK kinase inhibition, JNK1.
The target of experiment [3] is JNK3 (Homo sapiens, UniProt P53779). Kind of experiment: IC50 assay for JNK kinase inhibition, JNK3.
Sequence of JNK3 (P53779 whole entry): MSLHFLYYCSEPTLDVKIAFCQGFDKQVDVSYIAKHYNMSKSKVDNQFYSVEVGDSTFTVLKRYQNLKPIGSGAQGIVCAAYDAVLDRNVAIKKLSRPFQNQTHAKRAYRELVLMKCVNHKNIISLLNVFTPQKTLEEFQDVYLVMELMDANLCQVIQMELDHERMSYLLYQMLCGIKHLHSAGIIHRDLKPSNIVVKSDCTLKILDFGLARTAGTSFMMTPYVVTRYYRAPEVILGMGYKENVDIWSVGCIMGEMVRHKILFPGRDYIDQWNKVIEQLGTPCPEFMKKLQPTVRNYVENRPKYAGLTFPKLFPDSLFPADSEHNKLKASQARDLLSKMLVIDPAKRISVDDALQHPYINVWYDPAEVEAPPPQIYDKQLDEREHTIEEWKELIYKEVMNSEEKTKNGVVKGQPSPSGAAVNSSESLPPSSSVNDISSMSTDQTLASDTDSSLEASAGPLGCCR

Sequence of JNK2 (P45984 whole entry): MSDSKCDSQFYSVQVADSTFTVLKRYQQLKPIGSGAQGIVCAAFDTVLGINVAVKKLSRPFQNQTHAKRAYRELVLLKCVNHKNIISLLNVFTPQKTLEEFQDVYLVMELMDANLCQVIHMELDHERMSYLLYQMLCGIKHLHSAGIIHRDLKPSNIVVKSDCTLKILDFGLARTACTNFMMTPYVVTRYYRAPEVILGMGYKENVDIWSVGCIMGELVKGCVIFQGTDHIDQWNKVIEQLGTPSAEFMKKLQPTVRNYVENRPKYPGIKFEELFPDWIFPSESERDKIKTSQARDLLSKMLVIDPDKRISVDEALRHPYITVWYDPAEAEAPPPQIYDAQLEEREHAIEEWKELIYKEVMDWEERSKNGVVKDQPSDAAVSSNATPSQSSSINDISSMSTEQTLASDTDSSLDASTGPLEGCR
Sequence of JNK1 (P45983 whole entry): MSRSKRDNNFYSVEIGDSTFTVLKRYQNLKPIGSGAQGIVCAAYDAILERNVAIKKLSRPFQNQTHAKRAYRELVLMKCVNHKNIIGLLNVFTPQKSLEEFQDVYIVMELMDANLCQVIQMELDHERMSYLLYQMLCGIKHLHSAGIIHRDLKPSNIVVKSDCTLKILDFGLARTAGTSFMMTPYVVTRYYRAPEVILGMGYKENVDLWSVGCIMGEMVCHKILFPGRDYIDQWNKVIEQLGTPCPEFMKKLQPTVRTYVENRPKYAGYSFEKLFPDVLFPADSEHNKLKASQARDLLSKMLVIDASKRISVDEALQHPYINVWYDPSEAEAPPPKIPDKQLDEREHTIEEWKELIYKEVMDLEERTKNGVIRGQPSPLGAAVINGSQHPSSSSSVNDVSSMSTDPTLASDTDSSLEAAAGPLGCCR

On to `Cc1ccc2c(-c3ccnc(N[C@H]4CCN(C(=O)c5ccc(NC(=O)/C=C/CN(C)C)cc5)C4)n3)c(-c3ccccc3)nn2c1` [I-24, (S,E)-4-(dimethylamino)-N-(4-(3-((4-(6-methyl-2-phenylpyrazolo[1,5-a]pyridin-3-yl)pyrimidin-2-yl)amino)pyrrolidine-1-carbonyl)phenyl)but-2-enamide], for which the values for the IC50 in experiment [1], in experiment [2] and in experiment [3] were 0.952 nM, 18.4 nM and 5.53 nM, respectively.

In the case of `CN(C)C/C=C/C(=O)Nc1ccc(C(=O)N2CC[C@H](Nc3nccc(-c4c(-c5cccc(Cl)c5)nn5ccccc45)n3)C2)cc1` [I-25, (S,E)-N-(4-(3-((4-(2-(3-chlorophenyl)pyrazolo[1,5-a]pyridin-3-yl)pyrimidin-2-yl)amino)pyrrolidine-1-carbonyl)phenyl)-4-(dimethylamino)but-2-enamide], the IC50 (as a rule, the concentration that gives 50% inhibition) turned out to be 3.92 nM in experiment [1], 90.7 nM in experiment [2] and 18.3 nM in experiment [3].

Turning to `CN(C)C/C=C/C(=O)Nc1ccc(C(=O)N2CC[C@H](Nc3nccc(-c4c(-c5ccc(Cl)cc5)nn5ccccc45)n3)C2)cc1` [I-26, (S,E)-N-(4-(3-((4-(2-(4-chlorophenyl)pyrazolo[1,5-a]pyridin-3-yl)pyrimidin-2-yl)amino)pyrrolidine-1-carbonyl)phenyl)-4-(dimethylamino)but-2-enamide], the IC50 in experiment [1] was 67.6 nM; in experiment [2], 8.9 nM; in experiment [3] it was 10.3 nM.

For `C[C@H]1CN(C(=O)c2ccc(NC(=O)CCCN(C)C)cc2)C[C@H]1Nc1nccc(-c2c(-c3ccccc3)nn3ccccc23)n1` [I-27, 4-(dimethylamino)-N-(4-((3S,4S)-3-methyl-4-((4-(2-phenylpyrazolo[1,5-a]pyridin-3-yl)pyrimidin-2-yl)amino)pyrrolidine-1-carbonyl)phenyl)butanamide], the IC50 came out at 99.5 nM in experiment [1], 2600 nM in experiment [2] and 790 nM in experiment [3].

Regarding `Cc1ccc2c(-c3ccnc(N[C@@H]4CN(C(=O)c5ccc(NC(=O)/C=C/CN(C)C)cc5)C[C@@H]4C)n3)c(-c3ccccc3)nn2c1` [I-31, (E)-4-(dimethylamino)-N-(4-((3S,4S)-3-methyl-4-((4-(6-methyl-2-phenylpyrazolo[1,5-a]pyridin-3-yl)pyrimidin-2-yl)amino)pyrrolidine-1-carbonyl)phenyl)but-2-enamide], the 50% inhibitory concentration (IC50) in experiment [1] was 85.8 nM; in experiment [2], 2390 nM; in experiment [3], 274 nM.

Consider `COc1cccn2nc(-c3ccccc3)c(-c3ccnc(N[C@@H]4CN(C(=O)c5ccc(NC(=O)/C=C/CN(C)C)cc5)C[C@@H]4C)n3)c12` [I-32, (E)-4-(dimethylamino)-N-(4-((3S,4S)-3-((4-(4-methoxy-2-phenylpyrazolo[1,5-a]pyridin-3-yl)pyrimidin-2-yl)amino)-4-methylpyrrolidine-1-carbonyl)phenyl)but-2-enamide], for which the IC50 is 222 nM in experiment [1], 1810 nM in experiment [2] and > 3330 nM in experiment [3].
